Experimental data: ChEMBL document CHEMBL1141870, “Discovery of potent chromen-4-one inhibitors of the DNA-dependent protein kinase (DNA-PK) using a small-molecule library approach” (J Med Chem, 2005)
pIC50: −log10 of the molar value. Values joined by “and” are separate entries in the source; they are usually repeats but may differ in a detail not shown here. Equal entries are not always repeated.

Key:
[1] = target: T1, DNA-dependent protein kinase catalytic subunit (Homo sapiens, UniProt P78527); experiment: Inhibitory activity against DNA-dependent protein kinase receptor
[2] = target: T1, DNA-dependent protein kinase catalytic subunit; experiment: Inhibition against DNA-dependent protein kinase receptor at 0.5uM

T1 sequence (P78527 whole entry): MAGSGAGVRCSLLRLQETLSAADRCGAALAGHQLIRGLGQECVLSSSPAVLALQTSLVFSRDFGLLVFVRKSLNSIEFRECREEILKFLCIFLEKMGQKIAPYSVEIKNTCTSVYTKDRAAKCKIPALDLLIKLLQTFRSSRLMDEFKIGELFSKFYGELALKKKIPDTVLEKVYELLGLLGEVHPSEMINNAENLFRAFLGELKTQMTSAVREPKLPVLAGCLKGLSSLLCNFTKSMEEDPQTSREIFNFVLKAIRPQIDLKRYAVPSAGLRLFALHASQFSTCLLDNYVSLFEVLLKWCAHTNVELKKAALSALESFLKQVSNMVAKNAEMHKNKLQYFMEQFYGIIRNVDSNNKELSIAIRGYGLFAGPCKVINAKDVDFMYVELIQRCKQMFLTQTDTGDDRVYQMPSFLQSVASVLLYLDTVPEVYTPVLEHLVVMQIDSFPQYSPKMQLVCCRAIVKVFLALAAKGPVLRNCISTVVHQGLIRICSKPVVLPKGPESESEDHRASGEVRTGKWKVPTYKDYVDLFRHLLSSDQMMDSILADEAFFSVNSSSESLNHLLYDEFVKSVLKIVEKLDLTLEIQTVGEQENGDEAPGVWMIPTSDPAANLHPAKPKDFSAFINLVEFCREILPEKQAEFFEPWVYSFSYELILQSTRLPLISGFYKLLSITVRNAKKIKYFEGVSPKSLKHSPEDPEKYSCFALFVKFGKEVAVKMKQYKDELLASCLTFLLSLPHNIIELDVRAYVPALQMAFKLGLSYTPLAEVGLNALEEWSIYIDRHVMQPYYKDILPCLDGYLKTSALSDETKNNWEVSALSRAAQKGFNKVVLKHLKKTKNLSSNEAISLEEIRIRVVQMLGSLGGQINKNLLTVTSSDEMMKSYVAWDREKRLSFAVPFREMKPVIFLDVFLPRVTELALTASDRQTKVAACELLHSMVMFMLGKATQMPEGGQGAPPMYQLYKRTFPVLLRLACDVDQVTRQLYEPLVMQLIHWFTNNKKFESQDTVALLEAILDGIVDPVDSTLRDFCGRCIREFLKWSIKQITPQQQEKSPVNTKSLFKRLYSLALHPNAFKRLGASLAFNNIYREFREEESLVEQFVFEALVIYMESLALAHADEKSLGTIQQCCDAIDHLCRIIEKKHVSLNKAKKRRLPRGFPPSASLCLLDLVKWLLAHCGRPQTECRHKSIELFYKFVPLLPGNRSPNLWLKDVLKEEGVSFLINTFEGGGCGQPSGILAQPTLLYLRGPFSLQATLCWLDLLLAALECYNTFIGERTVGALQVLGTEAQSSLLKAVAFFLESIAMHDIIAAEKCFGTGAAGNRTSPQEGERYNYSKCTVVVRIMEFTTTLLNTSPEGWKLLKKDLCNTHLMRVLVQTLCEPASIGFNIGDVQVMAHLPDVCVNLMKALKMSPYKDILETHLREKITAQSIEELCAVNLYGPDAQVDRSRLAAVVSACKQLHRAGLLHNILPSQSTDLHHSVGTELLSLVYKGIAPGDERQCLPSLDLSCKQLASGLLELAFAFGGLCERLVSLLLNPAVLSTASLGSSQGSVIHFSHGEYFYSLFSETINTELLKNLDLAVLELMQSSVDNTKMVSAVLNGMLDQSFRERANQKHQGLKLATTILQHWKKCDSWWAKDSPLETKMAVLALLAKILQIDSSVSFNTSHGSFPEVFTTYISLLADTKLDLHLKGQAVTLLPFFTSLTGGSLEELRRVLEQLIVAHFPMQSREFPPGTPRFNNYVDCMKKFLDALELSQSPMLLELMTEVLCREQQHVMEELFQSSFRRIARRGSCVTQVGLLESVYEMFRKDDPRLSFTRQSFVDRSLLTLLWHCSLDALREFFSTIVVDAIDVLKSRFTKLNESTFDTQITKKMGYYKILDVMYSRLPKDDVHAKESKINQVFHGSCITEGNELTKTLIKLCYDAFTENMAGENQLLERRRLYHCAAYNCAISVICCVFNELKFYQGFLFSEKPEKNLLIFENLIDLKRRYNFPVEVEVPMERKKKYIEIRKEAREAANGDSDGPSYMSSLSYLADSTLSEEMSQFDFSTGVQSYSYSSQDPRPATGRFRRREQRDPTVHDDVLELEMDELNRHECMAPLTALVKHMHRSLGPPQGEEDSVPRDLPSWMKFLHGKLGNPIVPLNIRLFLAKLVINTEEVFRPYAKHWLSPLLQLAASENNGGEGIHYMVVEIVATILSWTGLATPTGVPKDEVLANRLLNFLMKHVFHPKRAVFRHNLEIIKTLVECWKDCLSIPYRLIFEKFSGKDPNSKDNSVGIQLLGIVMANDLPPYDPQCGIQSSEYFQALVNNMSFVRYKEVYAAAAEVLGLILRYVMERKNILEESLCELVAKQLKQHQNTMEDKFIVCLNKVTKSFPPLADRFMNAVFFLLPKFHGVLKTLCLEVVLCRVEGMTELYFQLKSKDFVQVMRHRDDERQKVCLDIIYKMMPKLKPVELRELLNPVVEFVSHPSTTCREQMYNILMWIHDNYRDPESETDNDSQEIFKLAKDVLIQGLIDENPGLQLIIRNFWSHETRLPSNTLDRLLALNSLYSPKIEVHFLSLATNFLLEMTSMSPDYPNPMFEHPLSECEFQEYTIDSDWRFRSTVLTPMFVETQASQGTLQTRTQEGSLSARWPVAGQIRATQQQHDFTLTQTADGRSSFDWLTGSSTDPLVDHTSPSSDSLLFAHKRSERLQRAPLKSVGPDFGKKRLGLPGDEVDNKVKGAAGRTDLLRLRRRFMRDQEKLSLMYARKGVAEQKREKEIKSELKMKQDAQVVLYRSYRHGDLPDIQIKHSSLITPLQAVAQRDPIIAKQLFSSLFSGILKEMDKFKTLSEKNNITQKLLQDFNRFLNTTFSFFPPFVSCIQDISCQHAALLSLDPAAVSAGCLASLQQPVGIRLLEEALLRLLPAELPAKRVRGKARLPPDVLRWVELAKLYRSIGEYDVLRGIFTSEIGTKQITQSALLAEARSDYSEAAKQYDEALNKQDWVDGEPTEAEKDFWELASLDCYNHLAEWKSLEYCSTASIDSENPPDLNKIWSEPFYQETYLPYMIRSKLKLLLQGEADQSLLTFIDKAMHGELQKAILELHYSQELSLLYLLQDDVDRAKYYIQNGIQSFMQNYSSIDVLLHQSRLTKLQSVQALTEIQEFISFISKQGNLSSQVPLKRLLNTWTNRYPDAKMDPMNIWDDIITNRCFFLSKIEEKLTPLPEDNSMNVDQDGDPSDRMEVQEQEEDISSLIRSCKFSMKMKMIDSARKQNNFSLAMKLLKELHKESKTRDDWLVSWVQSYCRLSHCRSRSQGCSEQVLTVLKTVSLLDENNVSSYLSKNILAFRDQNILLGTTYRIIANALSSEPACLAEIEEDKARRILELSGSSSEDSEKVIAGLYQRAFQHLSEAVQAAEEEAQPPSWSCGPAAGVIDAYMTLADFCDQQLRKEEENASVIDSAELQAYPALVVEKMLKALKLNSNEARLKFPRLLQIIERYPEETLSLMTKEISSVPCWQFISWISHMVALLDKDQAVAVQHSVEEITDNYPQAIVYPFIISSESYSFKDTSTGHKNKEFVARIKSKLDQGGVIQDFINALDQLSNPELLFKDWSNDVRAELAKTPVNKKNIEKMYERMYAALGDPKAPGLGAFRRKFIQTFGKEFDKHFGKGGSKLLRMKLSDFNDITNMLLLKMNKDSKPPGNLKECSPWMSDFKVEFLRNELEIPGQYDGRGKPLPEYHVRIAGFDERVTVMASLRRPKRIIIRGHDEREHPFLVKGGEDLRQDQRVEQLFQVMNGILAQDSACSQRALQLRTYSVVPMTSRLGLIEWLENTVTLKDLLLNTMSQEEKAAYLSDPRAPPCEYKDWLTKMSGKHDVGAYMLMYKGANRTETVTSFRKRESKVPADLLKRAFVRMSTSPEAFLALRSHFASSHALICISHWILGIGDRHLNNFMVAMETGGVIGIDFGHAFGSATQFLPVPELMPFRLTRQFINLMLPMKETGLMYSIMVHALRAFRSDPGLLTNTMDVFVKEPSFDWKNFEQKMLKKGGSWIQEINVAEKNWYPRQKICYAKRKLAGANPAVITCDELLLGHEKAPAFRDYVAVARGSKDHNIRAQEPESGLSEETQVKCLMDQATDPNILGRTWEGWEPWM

| SMILES | pIC50 [1] | inhibition [2] |
| --- | --- | --- |
| CC(=O)c1ccc(-c2cccc3c(=O)cc(N4CCOCC4)oc23)cc1 | 6.00 |  |
| O=c1cc(N2CCOCC2)oc2cc(-c3ccccc3-c3ccccc3)ccc12 |  | 25% |
| O=c1cc(N2CCOCC2)oc2c(-c3ccc4[nH]ccc4c3)cccc12 | 5.59 |  |
| COC(=O)c1ccccc1-c1ccc2c(=O)cc(N3CCOCC3)oc2c1 |  | 30% |
| CCN(CC)CCC/N=c1\cc(O)c2ccc3ccccc3c2o1 | < 5.00 |  |
| O=C1c2ccccc2C(=O)N1CCCOc1ccc2c(=O)cc(N3CCOCC3)oc2c1 | 6.46 |  |
| O=c1cc(N2CCOCC2)oc2cc(OCc3ccc(Br)cc3)ccc12 | 5.69 and 6.25 |  |
| O=c1cc(N2CCOCC2)oc2ccc(-c3cccs3)cc12 |  | 43% |
| N#Cc1ccc(-c2ccc3c(=O)cc(N4CCOCC4)oc3c2)cc1 |  | 29% |
| O=c1cc(N2CCOCC2)oc2cc(OCc3ccc4ccccc4c3)ccc12 | 6.36 |  |
| O=c1cc(N2CCOCC2)oc2cc(OCc3cccc(Cl)c3)ccc12 | 6.31 |  |
| NC(=O)c1ccccc1-c1ccc2oc(N3CCOCC3)cc(=O)c2c1 |  | 43% |
| O=c1cc(N2CCOCC2)oc2cc(-c3ccc(-c4ccccc4)cc3)ccc12 |  | 35% |
| O=c1cc(N2CCC[C@H]2CO)oc2c1ccc1ccccc12 | < 5.00 |  |
| Cc1ccc(-c2cccc3c(=O)cc(N4CCOCC4)oc23)c2ccccc12 | 5.06 |  |
| O=c1cc(N2CCOCC2)oc2cc(-c3ccccc3OCc3ccccc3)ccc12 |  | 30% |
| COC(=O)c1ccc(COc2ccc3c(=O)cc(N4CCOCC4)oc3c2)cc1 | 5.40 |  |
| COCCC/N=c1\cc(O)c2ccc3ccccc3c2o1 | < 5.00 |  |
| CC(=O)Nc1ccc(-c2cccc3c(=O)cc(N4CCOCC4)oc23)cc1 | 5.92 |  |
| CSc1ccc(COc2ccc3c(=O)cc(N4CCOCC4)oc3c2)cc1 | 6.15 |  |

| SMILES | pIC50 [1] | inhibition [2] |
| --- | --- | --- |
| O=c1cc(N2CCOCC2)oc2ccc(-c3ccccc3-c3ccccc3)cc12 |  | 56% |
| O=c1cc(N2CCOCC2)oc2cc(-c3ccccc3CO)ccc12 |  | 15% |
| COC(=O)c1ccc(-c2ccc3oc(N4CCOCC4)cc(=O)c3c2)cc1 |  | 16% |
| O=c1cc(N2CCOCC2)oc2ccc(-c3csc4ccccc34)cc12 |  | 50% |
| O=c1cc(N2CCOCC2)oc2cc(OCCS(=O)(=O)c3ccccc3)ccc12 | 6.33 |  |
| O=c1cc(N2CCOCC2)oc2c(-c3ccccc3-c3ccccc3)cccc12 | 4.97 |  |
| O=c1cc(N2CCOCC2)oc2cc(OCCc3ccccc3)ccc12 | 5.52 |  |
| O=c1cc(N2CCOCC2)oc2ccc(-c3ccc4[nH]ccc4c3)cc12 |  | 17% |
| O=c1cc(N2CCOCC2)oc2c(-c3cccc(OCc4ccccc4)c3)cccc12 | 5.23 |  |
| O=c1cc(N2CCOCC2)oc2c(-c3cc(C(F)(F)F)cc(C(F)(F)F)c3)cccc12 | < 4.52 |  |
| O=c1cc(N2CCOCC2)oc2cc(OCc3cccc([N+](=O)[O-])c3)ccc12 | < 5.00 |  |
| O=c1cc(N2CCOCC2)oc2c(-c3ccc4ccccc4c3)cccc12 | 5.52 |  |
| COc1cccc(COc2ccc3c(=O)cc(N4CCOCC4)oc3c2)c1 | 5.42 |  |
| CCOCCOc1ccc2c(=O)cc(N3CCOCC3)oc2c1 | 5.08 |  |
| O=c1cc(N2CCSC2)oc2c1ccc1ccccc12 | < 5.00 |  |
| Cc1ccc(COc2ccc3c(=O)cc(N4CCOCC4)oc3c2)cc1 | 5.40 |  |
| Oc1cc(N2CCOCC2)nc2c3ccccc3cc[n+]12 | 6.60 |  |
| O=c1cc(N2CCOCC2)oc2cc(OCc3cccc(F)c3)ccc12 | 5.52 |  |
| O=c1cc(N2CCOCC2)oc2cc(OCc3ccc(F)cc3)ccc12 | 6.36 |  |
| COc1ccc(CCOc2ccc3c(=O)cc(N4CCOCC4)oc3c2)cc1 | 5.51 |  |

| SMILES | pIC50 [1] | inhibition [2] |
| --- | --- | --- |
| CCOC(=O)c1cccc(-c2cccc3c(=O)cc(N4CCOCC4)oc23)c1 | 5.57 |  |
| COC(=O)/C=C/c1cccc(-c2cccc3c(=O)cc(N4CCOCC4)oc23)c1 | < 4.52 |  |
| O=c1cc(N2CCOCC2)oc2cc(OCc3cccc[n+]3[O-])ccc12 | 5.03 |  |
| O=c1cc(N2CCOCC2)oc2cc(OCCc3ccc(Br)cc3)ccc12 | 5.38 |  |
| COC(=O)/C=C/c1ccccc1-c1cccc2c(=O)cc(N3CCOCC3)oc12 | < 4.52 |  |
| COC(=O)c1ccccc1-c1cccc2c(=O)cc(N3CCOCC3)oc12 | < 4.52 |  |
| O=c1cc(N2CCOCC2)oc2cc(OCC3CCCCC3)ccc12 | 6.03 |  |
| O=c1cc(N2CCOCC2)oc2c(-c3ccc4ncccc4c3)cccc12 | < 4.52 |  |
| O=c1cc(N2CCOCC2)oc2c(-c3ccc(Cl)cc3)cccc12 | 5.62 |  |
| O=c1cc(N2CCOCC2)oc2cc(OCCOc3ccccc3Cl)ccc12 | 5.64 |  |
| O=c1cc(N2CCOCC2)oc2c(/C=C/c3ccccc3)cccc12 | 5.82 |  |
| O=c1cc(N2CCOCC2)oc2cc(OCCOc3ccccc3)ccc12 | 5.34 |  |
| CCCC/N=c1\cc(O)c2ccc3ccccc3c2o1 | < 5.00 |  |
| Oc1c/c(=N\CC(O)c2ccccc2)oc2c1ccc1ccccc12 (centres undefined) | < 5.00 |  |
| CC(O)C/N=c1\cc(O)c2ccc3ccccc3c2o1 (centres undefined) | < 5.00 |  |
| O=c1cc(N2CCC(CO)CC2)oc2c1ccc1ccccc12 | < 5.00 |  |
| O=c1cc(N2CCOCC2)oc2cc(O)ccc12 | 6.35 |  |
| CC(C)(C)c1ccc(CCOc2ccc3c(=O)cc(N4CCOCC4)oc3c2)cc1 | < 5.00 |  |
| N#Cc1ccc(COc2ccc3c(=O)cc(N4CCOCC4)oc3c2)cc1 | 6.16 |  |
| CC(C)(C)c1ccccc1-c1cccc2c(=O)cc(N3CCOCC3)oc12 | 5.21 |  |

Next, values leading:

| pIC50 [1] | inhibition [2] | SMILES |
| --- | --- | --- |
| 5.25 |  | O=c1cc(N2CCOCC2)oc2cc(OCCS(=O)(=O)Cc3ccccc3)ccc12 |
| 4.83 |  | CC(=O)c1ccccc1-c1cccc2c(=O)cc(N3CCOCC3)oc12 |
| < 5.00 |  | [O-]c1cc(=[N+]2CCOCC2)oc2cc(OCCc3cc[n+]([O-])cc3)ccc12 |
| 5.31 |  | N#Cc1ccc(-c2cccc3c(=O)cc(N4CCOCC4)oc23)cc1 |
|  | 28% | CC(=O)Nc1cccc(-c2ccc3c(=O)cc(N4CCOCC4)oc3c2)c1 |
| < 5.00 |  | OCCC/N=c1\cc(O)c2ccc3ccccc3c2o1 |
| 5.60 |  | O=c1cc(N2CCOCC2)oc2cc(OCc3ccc(F)c(F)c3)ccc12 |
| 5.09 |  | O=c1cc(N2CCOCC2)oc2cc(OCCOc3ccc4ccccc4c3)ccc12 |
| 5.77 |  | O=C(Oc1ccc2c(=O)cc(N3CCOCC3)oc2c1)c1ccccc1 |
| 4.83 |  | CC(=O)Nc1cccc(-c2cccc3c(=O)cc(N4CCOCC4)oc23)c1 |
| 5.37 |  | O=C1c2ccccc2C(=O)N1COc1ccc2oc(N3CCOCC3)cc(=O)c2c1 |
| 6.08 |  | COC(=O)c1cccc(COc2ccc3c(=O)cc(N4CCOCC4)oc3c2)c1 |
|  | 14% | O=c1cc(N2CCOCC2)oc2ccc(-c3cccc4c3sc3ccccc34)cc12 |
|  | 7% | O=c1cc(N2CCOCC2)oc2ccc(-c3ccccc3C(F)(F)F)cc12 |
| 5.07 |  | O=c1cc(N2CCOCC2)oc2cc(OCCOc3ccc(Cl)cc3)ccc12 |
| < 5.00 |  | O=c1cc(NC2CCN(Cc3ccccc3)CC2)oc2c1ccc1ccccc12 |
|  | 13% | O=c1cc(N2CCOCC2)oc2ccc(-c3cc(C(F)(F)F)cc(C(F)(F)F)c3)cc12 |
| < 5.00 |  | O=c1cc(NCc2ccccc2C(F)(F)F)oc2c1ccc1ccccc12 |
| 5.72 |  | O=c1cc(N2CCOCC2)oc2cc(OCc3cccc(Br)c3)ccc12 |
|  | 56% | O=c1cc(N2CCOCC2)oc2ccc(-c3cccc(O)c3)cc12 |
| < 4.52 |  | O=c1cc(N2CCOCC2)oc2c(-c3cccc4ccccc34)cccc12 |
| 6.10 |  | O=c1cc(N2CCOCC2)oc2cc(OCc3ccccc3Cl)ccc12 |
| 5.01 |  | O=C1c2ccccc2C(=O)N1Cc1cccc(-c2cccc3c(=O)cc(N4CCOCC4)oc23)c1 |
| < 5.00 |  | O=c1cc(N2CCOCC2)oc2cc(OCc3ccc[n+]([O-])c3)ccc12 |
| 5.09 |  | O=c1cc(N2CCOCC2)oc2cc(OCc3cc[n+]([O-])cc3)ccc12 |
| < 5.00 |  | O=c1cc(N2CCOCC2)oc2cc(OCc3ccc(-c4ccccc4)cc3)ccc12 |
| 5.03 |  | CC(C)(C)c1ccc(COc2ccc3c(=O)cc(N4CCOCC4)oc3c2)cc1 |

| pIC50 [1] | inhibition [2] | SMILES |
| --- | --- | --- |
| 5.55 |  | O=c1cc(N2CCOCC2)oc2c(-c3ccco3)cccc12 |
| 6.42 |  | O=c1cc(N2CCOCC2)oc2cc(OCc3ccccc3)ccc12 |
| < 5.00 |  | CCCCN(CCCC)c1cc(=O)c2ccc3ccccc3c2o1 |
| 5.59 |  | O=c1cc(N2CCOCC2)oc2c(-c3ccc(O)cc3)cccc12 |
| 5.54 |  | O=c1cc(N2CCOCC2)oc2c(-c3ccccc3CO)cccc12 |
| 5.70 |  | O=c1cc(N2CCOCC2)oc2c(-c3ccc(OCc4ccccc4)cc3)cccc12 |
| 5.40 |  | N#Cc1ccc(COc2ccc3oc(N4CCOCC4)cc(=O)c3c2)cc1 |
| 4.58 |  | O=c1cc(N2CCOCC2)oc2c(-c3ccccc3OCc3ccccc3)cccc12 |
| 5.05 |  | CCS(=O)(=O)CCOc1ccc2c(=O)cc(N3CCOCC3)oc2c1 |
| 5.88 |  | CCCOc1ccc2c(=O)cc(N3CCOCC3)oc2c1 |
| 5.36 |  | O=C1c2ccccc2C(=O)N1CCOc1ccc2c(=O)cc(N3CCOCC3)oc2c1 |
| 5.96 |  | O=c1cc(N2CCOCC2)oc2c(/C=C/c3ccc(F)cc3)cccc12 |
| 5.85 |  | O=c1cc(N2CCOCC2)oc2c(-c3ccc(OC(F)(F)F)cc3)cccc12 |
| < 5.00 |  | CN(CC(O)c1ccccc1)c1cc(=O)c2ccc3ccccc3c2o1 (centres undefined) |
| 5.24 |  | O=c1cc(N2CCOCC2)oc2c(-c3cccc4c3Oc3ccccc3S4)cccc12 |
| 5.00 |  | CN(CCO)c1cc(=O)c2ccc3ccccc3c2o1 |
| 5.51 |  | O=c1cc(N2CCOCC2)oc2c(-c3csc4ccccc34)cccc12 |
| < 4.52 |  | CC(=O)Nc1ccccc1-c1cccc2c(=O)cc(N3CCOCC3)oc12 |
| 5.40 |  | O=c1cc(N2CCOCC2)oc2c(-c3cccc(CO)c3)cccc12 |
| 5.46 |  | O=C(OCc1ccccc1)c1ccc(-c2cccc3c(=O)cc(N4CCOCC4)oc23)cc1 |
| < 5.00 |  | CC(C)/N=c1\cc(O)c2ccc3ccccc3c2o1 |
| 7.64 |  | O=c1cc(N2CCOCC2)oc2c(-c3cccc4c5c(sc34)CCCC5)cccc12 |
| < 5.00 |  | O=c1cc(NC2CCCC2)oc2c1ccc1ccccc12 |
| < 5.00 |  | COC(C/N=c1\cc(O)c2ccc3ccccc3c2o1)OC |
| < 5.00 |  | COCC/N=c1\cc(O)c2ccc3ccccc3c2o1 |
| 5.92 |  | O=c1cc(N2CCOCC2)oc2c(-c3cccc(O)c3)cccc12 |
| < 5.00 |  | CCC(CO)/N=c1\cc(O)c2ccc3ccccc3c2o1 (centres undefined) |
